Data: patent publication US20090258836A1, “EFFECTIVE DELIVERY OF CROSS-SPECIES A3 ADENOSINE-RECEPTOR ANTAGONISTS TO REDUCE INTRAOCULAR PRESSURE” (The Trustees of The University of Pennsylvania, priority 2006, published 2009)
“Also recorded” adds a separate entry of the source.

Legend:
[1] = test system: IOP of A3 subtype adenosine receptor (A3AR)-null mice; settings: published reports; cited from earlier work
[2] = test system: HCE (human ciliary epithelial) cell line, NPE cells; assay: Cell volume in isosmotic solution (isosmotic shrinkage), Coulter Counter; type: cell-based
Procedure, shortened: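 Immortalized human NPE (HCE) cells, 8-13 days post-passage at confluence, suspended in isosmotic solution with test agents or matched vehicle. Volume measured by Coulter Counter as peak of distribution, normalized to first time point; shrinkage fit to monoexponential by nonlinear least squares for steady-state volume and time constant.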

mouse IOP = assay: Mouse IOP after topical application, non-invasive pneumotonometry; type: in vivo, Black Swiss mice
Procedure, shortened: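 Black Swiss outbred mice (7-9 weeks, mixed sex) under intraperitoneal ketamine plus topical proparacaine 0.5%. Drugs applied topically as […] droplets three times, containing <2% DMSO and 0.0005% benzalkonium chloride; IOP measured non-invasively by pneumotonometry at 10-min intervals from a stereotactically fixed probe position.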

human A1 receptors = target: T1, human A1 receptors (Homo sapiens, UniProt P30542); settings: literature; read-out: Ki for the binding to human A1 receptors; cited from earlier work
T1 sequence (P30542 1-326): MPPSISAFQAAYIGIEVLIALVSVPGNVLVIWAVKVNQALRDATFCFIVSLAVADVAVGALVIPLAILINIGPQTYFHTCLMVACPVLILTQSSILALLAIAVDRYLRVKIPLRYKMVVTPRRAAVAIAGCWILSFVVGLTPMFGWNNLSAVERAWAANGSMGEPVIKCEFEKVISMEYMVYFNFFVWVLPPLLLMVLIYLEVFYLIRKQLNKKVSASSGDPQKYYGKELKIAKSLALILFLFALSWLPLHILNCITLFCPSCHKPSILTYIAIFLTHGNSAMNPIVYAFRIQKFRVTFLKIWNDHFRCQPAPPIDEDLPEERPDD

For `CCOC(=O)C1=C(C)NC(c2ccccc2)=C(C(=O)OCc2ccccc2)C1C#Cc1ccccc1` (racemic) [MRS-1191, 3-ethyl 5-benzyl-2-methyl-6-phenyl-4-phenylethynyl-1,4-(±)-dihydropyridine-3,5-dicarboxylate], the “response of IOP of A3AR-null mice” value [1] is given as “unresponsive”, the “effect of A3 antagonist on IB-MECA-triggered isosmotic shrinkage of NPE cells” value ([2]; 100 nM IB-MECA, 2 min preincubation with 300 nM MRS-1097 or 100 nM MRS-1191) is given as “prevented characteristic shrinkage; also recorded: prevented the shrinkage” and the “effect on cell volume in the absence of IB-MECA” value ([2]; 100 nM MRS-1191) is given as “did not affect cell volume”. For the same molecule, the “effect of A3 antagonist on isosmotic shrinkage triggered by CGS-21680” value ([2]; 3 μM CGS-21680, preincubation with 100 nM MRS-1191) was “abolished this effect; also recorded: blocked; also recorded: prevented the shrinkage”, the “effect of A3 antagonist on adenosine-stimulated isotonic shrinkage of NPE cells” value ([2]; 10 μM adenosine, 2 min preincubation with 300 nM MRS-1097, 100 nM MRS-1191 or 100 nM MRS-1523) was “prevented the characteristic shrinkage; also recorded: blocked the shrinkage” and the “time of maximum decrease in IOP observed pneumotonometrically” value (mouse IOP; after the initial application, end of the experiments) was 30 min. The “time to begin lowering mouse IOP significantly, non-invasive” value (mouse IOP; after topical application) was 30 min and the Ki (human A1 receptors) was 40.1 µM.
